Measured values from US20100298141A1, “SUBSTITUTED PYRIDINE N-OXIDE HERBICIDES” (E. I. DU PONT DE NEMOURS AND COMPANY, priority 2007, published 2010).

Columns and labels:
giant foxtail [1] = assay: Test A pre-/postemergence greenhouse test; type: in vivo, Setaria faberi; conditions: for Plant response rating, Foxtail, Giant: 0 to 100 scale where 0 is no effect and 100 is complete control; for Foxtail, Giant plant response rating: 0 to 100 scale
Procedure, shortened: (§1)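 Seeds sown in a loam soil–sand blend got a preemergence directed soil spray of compound in a non-phytotoxic solvent mixture containing surfactant. Postemergence sprays of the same formulation went at the same time onto plants 2–10 cm tall at the one- to two-leaf stage. Injury was scored visually against untreated controls after about ten days in the greenhouse.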

morningglory = assay: Test A pre-/postemergence greenhouse test; type: in vivo, Ipomoea spp.; conditions: for Plant response rating, Morningglory: 0 to 100 scale where 0 is no effect and 100 is complete control; for Morningglory plant response rating: 0 to 100 scale
Procedure, shortened: as §1

redroot pigweed = assay: Test A pre-/postemergence greenhouse test; type: in vivo, Amaranthus retroflexus; conditions: for Plant response rating, Pigweed: 0 to 100 scale where 0 is no effect and 100 is complete control; for Pigweed plant response rating: 0 to 100 scale
Procedure, shortened: as §1

wheat [2] = assay: Test A pre-/postemergence greenhouse test; type: in vivo, Triticum aestivum; conditions: for Plant response rating, Wheat: 0 to 100 scale where 0 is no effect and 100 is complete control; for Wheat plant response rating: 0 to 100 scale
Procedure, shortened: as §1

blackgrass = assay: Test C pre-/postemergence test; type: in vivo, Alopecurus myosuroides
Procedure, shortened: (§2)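 Seeds were planted and treated preemergence with test chemical in a non-phytotoxic solvent mixture containing surfactant. Postemergence applications of the same formulation went onto plants 2 to 18 cm tall (1- to 4-leaf stage). A dash marks no test result.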

downy brome = assay: Test C pre-/postemergence test; type: in vivo, Bromus tectorum
Procedure, shortened: as §2

wheat [3] = assay: Test C pre-/postemergence test; type: in vivo, Triticum aestivum
Procedure, shortened: as §2

wild oat = assay: Test C pre-/postemergence test; type: in vivo, Avena fatua
Procedure, shortened: as §2

Surinam grass = assay: Test C pre-/postemergence test; type: in vivo, Brachiaria decumbens; conditions: for Plant response rating (0 to 100), Surinam Grass: Postemergence
Procedure, shortened: as §2

cocklebur = assay: Test C pre-/postemergence test; type: in vivo, Xanthium strumarium
Procedure, shortened: as §2

woolly cupgrass = assay: Test C pre-/postemergence test; type: in vivo, Eriochloa villosa
Procedure, shortened: as §2

giant foxtail [4] = assay: Test C pre-/postemergence test; type: in vivo, Setaria faberii
Procedure, shortened: as §2

kochia = assay: Test C pre-/postemergence test; type: in vivo, Kochia scoparia
Procedure, shortened: as §2

lambsquarters = assay: Test C pre-/postemergence test; type: in vivo, Chenopodium album; conditions: for Lambsquarters plant response rating: preemergence, scale 0 (no effect) to 100 (complete control)
Procedure, shortened: as §2

eastern black nightshade = assay: Test C pre-/postemergence test; type: in vivo, Solanum ptycanthum
Procedure, shortened: as §2

common ragweed = assay: Test C pre-/postemergence test; type: in vivo, Ambrosia elation; conditions: for Plant response rating (0 to 100), Ragweed / Plant response rating, Ragweed: Postemergence; for Plant response rating, Ragweed: scale 0 to 100, 0 no effect, 100 complete control
Procedure, shortened: as §2

[5] = tested on: common (oilseed) sunflower; assay: Test C pre-/postemergence test; type: in vivo, Helianthus annuus
Procedure, shortened: as §2

velvetleaf = assay: Test C pre-/postemergence test; type: in vivo, Abutilon theophrasti
Procedure, shortened: as §2

[6] = Postemergence, 500 g ai/ha, 0 is no effect, 100 is complete control
[7] = Preemergence, 125 g ai/ha, 0 no effect, 100 complete control
[8] = 62 g ai/ha, Preemergence, scale 0 to 100
[9] = 125 g ai/ha, preemergence, scale 0 (no effect) to 100 (complete control)
[10] = Postemergence, 125 g ai/ha, scale 0 to 100, 0 no effect, 100 complete control
[11] = Postemergence, 250 g ai/ha, scale 0 to 100, 0 no effect, 100 complete control
[12] = Preemergence, 31 g ai/ha, scale 0 to 100 (0 no effect, 100 complete control)
[13] = preemergence, 250 g ai/ha, scale 0 (no effect) to 100 (complete control)

CC(Oc1c(CS(=O)(=O)c2cccc[n+]2[O-])c(C(F)(F)F)nn1C)C(F)(F)F (stereo not drawn) [Compound 82] was tested, and the “Plant response rating, Foxtail, Giant” value (giant foxtail [1]; Postemergence, 125 g ai/ha) was 90, the “Foxtail, Giant plant response rating” value (giant foxtail [1]; [6]) was 90 and the “Foxtail, Giant plant response rating” value (giant foxtail [1]; [7]) was 100. For the same molecule, the “Plant response rating, Foxtail, Giant” value (giant foxtail [1]; Preemergence, 500 g ai/ha) was 100, the “Plant response rating, Morningglory” value (morningglory; Postemergence, 125 g ai/ha) was 40 and the “Morningglory plant response rating” value (morningglory; [6]) was 50. The “Morningglory plant response rating” value (morningglory; [7]) was 60, the “Plant response rating, Morningglory” value (morningglory; Preemergence, 500 g ai/ha) was 100 and the “Plant response rating, Pigweed” value (redroot pigweed; Postemergence, 125 g ai/ha) was 30. For the same molecule, the “Pigweed plant response rating” value (redroot pigweed; [6]) was 70, the “Pigweed plant response rating” value (redroot pigweed; [7]) was 40 and the “Plant response rating, Pigweed” value (redroot pigweed; Preemergence, 500 g ai/ha) was 100. The “Plant response rating, Wheat” value (wheat [2]; Postemergence, 125 g ai/ha) was 30, the “Wheat plant response rating” value (wheat [2]; [6]) was 60 and the “Wheat plant response rating” value (wheat [2]; [7]) was 30. The “Plant response rating, Wheat” value (wheat [2]; Preemergence, 500 g ai/ha) was 70, the “Blackgrass plant response rating” value (blackgrass; [8]) was 100 and the “Blackgrass plant response rating” value (blackgrass; [9]) was 100. The “Plant response rating (0 to 100), Blackgrass” value (blackgrass; Postemergence, 31 g ai/ha) was 0, the “Plant response rating (0 to 100), Blackgrass” value (blackgrass; Postemergence, 62 g ai/ha) was 60 and the “Plant response rating, Blackgrass” value (blackgrass; [10]) was 90. The “Plant response rating, Blackgrass” value (blackgrass; [11]) was 95, the “Plant response rating, Blackgrass” value (blackgrass; [12]) was 100 and the “Blackgrass plant response rating” value (blackgrass; [13]) was 100. The “Bromegrass, Downy plant response rating” value (downy brome; [8]) was 60, the “Bromegrass, Downy plant response rating” value (downy brome; [9]) was 80 and the “Plant response rating (0 to 100), Bromegrass, Downy” value (downy brome; Postemergence, 31 g ai/ha) was 0. The “Plant response rating (0 to 100), Bromegrass, Downy” value (downy brome; Postemergence, 62 g ai/ha) was 0, the “Plant response rating, Bromegrass, Downy” value (downy brome; [10]) was 0 and the “Plant response rating, Bromegrass, Downy” value (downy brome; [11]) was 0. The “Plant response rating, Bromegrass, Downy” value (downy brome; [12]) was 50, the “Bromegrass, Downy plant response rating” value (downy brome; [13]) was 100 and the “Wheat plant response rating” value (wheat [3]; [8]) was 20. The “Wheat plant response rating” value (wheat [3]; [9]) was 30, the “Plant response rating (0 to 100), Wheat” value (wheat [3]; Postemergence, 31 g ai/ha) was 0 and the “Plant response rating (0 to 100), Wheat” value (wheat [3]; Postemergence, 62 g ai/ha) was 20. For the same molecule, the “Plant response rating, Wheat” value (wheat [3]; [10]) was 25, the “Plant response rating, Wheat” value (wheat [3]; [11]) was 35 and the “Plant response rating, Wheat” value (wheat [3]; [12]) was 10. The “Wheat plant response rating” value (wheat [3]; [13]) was 60, the “Oat, Wild plant response rating” value (wild oat; [8]) was 60 and the “Oat, Wild plant response rating” value (wild oat; [9]) was 80. For the same molecule, the “Plant response rating (0 to 100), Oat, Wild” value (wild oat; Postemergence, 31 g ai/ha) was 0, the “Plant response rating (0 to 100), Oat, Wild” value (wild oat; Postemergence, 62 g ai/ha) was 0 and the “Plant response rating, Oat, Wild” value (wild oat; [10]) was 0. For the same molecule, the “Plant response rating, Oat, Wild” value (wild oat; [11]) was 40, the “Plant response rating, Oat, Wild” value (wild oat; [12]) was 35 and the “Oat, Wild plant response rating” value (wild oat; [13]) was 80. For the same molecule, the “Surinam Grass plant response rating” value (Surinam grass; [8]) was 80, the “Surinam Grass plant response rating” value (Surinam grass; [9]) was 90 and the “Plant response rating (0 to 100), Surinam Grass” value (Surinam grass; 31 g ai/ha) was 0. For the same molecule, the “Plant response rating (0 to 100), Surinam Grass” value (Surinam grass; 62 g ai/ha) was 0, the “Plant response rating, Surinam Grass” value (Surinam grass; [12]) was 70 and the “Surinam Grass plant response rating” value (Surinam grass; [13]) was 90. For the same molecule, the “Cocklebur plant response rating” value (cocklebur; [8]) was 0, the “Cocklebur plant response rating” value (cocklebur; [9]) was 0 and the “Plant response rating (0 to 100), Cocklebur” value (cocklebur; Postemergence, 31 g ai/ha) was 0. For the same molecule, the “Plant response rating (0 to 100), Cocklebur” value (cocklebur; Postemergence, 62 g ai/ha) was 0, the “Plant response rating, Cocklebur” value (cocklebur; [10]) was 0 and the “Plant response rating, Cocklebur” value (cocklebur; [11]) was 0. The “Plant response rating, Cocklebur” value (cocklebur; [12]) was 0, the “Cocklebur plant response rating” value (cocklebur; [13]) was 0 and the “Cupgrass, Woolly plant response rating” value (woolly cupgrass; [8]) was 90. For the same molecule, the “Cupgrass, Woolly plant response rating” value (woolly cupgrass; [9]) was 90, the “Plant response rating (0 to 100), Cupgrass, Woolly” value (woolly cupgrass; Postemergence, 31 g ai/ha) was 0 and the “Plant response rating (0 to 100), Cupgrass, Woolly” value (woolly cupgrass; Postemergence, 62 g ai/ha) was 0. For the same molecule, the “Plant response rating, Cupgrass, Woolly” value (woolly cupgrass; [10]) was 20, the “Plant response rating, Cupgrass, Woolly” value (woolly cupgrass; [11]) was 50 and the “Plant response rating, Cupgrass, Woolly” value (woolly cupgrass; [12]) was 80. For the same molecule, the “Cupgrass, Woolly plant response rating” value (woolly cupgrass; [13]) was 98, the “Foxtail, Giant plant response rating” value (giant foxtail [4]; [8]) was 85 and the “Foxtail, Giant plant response rating” value (giant foxtail [4]; [9]) was 100. For the same molecule, the “Plant response rating (0 to 100), Foxtail, Giant” value (giant foxtail [4]; Postemergence, 31 g ai/ha) was 0, the “Plant response rating (0 to 100), Foxtail, Giant” value (giant foxtail [4]; Postemergence, 62 g ai/ha) was 0 and the “Plant response rating, Foxtail, Giant” value (giant foxtail [4]; [10]) was 40. The “Plant response rating, Foxtail, Giant” value (giant foxtail [4]; [11]) was 40, the “Plant response rating, Foxtail, Giant” value (giant foxtail [4]; [12]) was 70 and the “Foxtail, Giant plant response rating” value (giant foxtail [4]; [13]) was 100. For the same molecule, the “Kochia plant response rating” value (kochia; [8]) was 100, the “Kochia plant response rating” value (kochia; [9]) was 100 and the “Plant response rating (0 to 100), Kochia” value (kochia; Postemergence, 31 g ai/ha) was 0. For the same molecule, the “Plant response rating (0 to 100), Kochia” value (kochia; Postemergence, 62 g ai/ha) was 0, the “Plant response rating, Kochia” value (kochia; [10]) was 0 and the “Plant response rating, Kochia” value (kochia; [11]) was 0. The “Plant response rating, Kochia” value (kochia; [12]) was 100, the “Kochia plant response rating” value (kochia; [13]) was 100 and the “Lambsquarters plant response rating” value (lambsquarters; 125 g ai/ha) was 0. For the same molecule, the “Plant response rating (0 to 100), Lambsquarters” value (lambsquarters; Postemergence, 31 g ai/ha) was 0, the “Plant response rating (0 to 100), Lambsquarters” value (lambsquarters; Postemergence, 62 g ai/ha) was 0 and the “Plant response rating, Lambsquarters” value (lambsquarters; [11]) was 0. For the same molecule, the “Lambsquarters plant response rating” value (lambsquarters; 250 g ai/ha) was 100, the “Nightshade plant response rating” value (eastern black nightshade; [8]) was 40 and the “Nightshade plant response rating” value (eastern black nightshade; [9]) was 80. The “Plant response rating, Nightshade” value (eastern black nightshade; [12]) was 0, the “Nightshade plant response rating” value (eastern black nightshade; [13]) was 100 and the “Ragweed plant response rating” value (common ragweed; [8]) was 0. For the same molecule, the “Ragweed plant response rating” value (common ragweed; [9]) was 100, the “Plant response rating (0 to 100), Ragweed” value (common ragweed; 31 g ai/ha) was 0 and the “Plant response rating (0 to 100), Ragweed” value (common ragweed; 62 g ai/ha) was 30. For the same molecule, the “Plant response rating, Ragweed” value (common ragweed; 125 g ai/ha) was 35, the “Plant response rating, Ragweed” value (common ragweed; 250 g ai/ha) was 50 and the “Ragweed plant response rating” value (common ragweed; [13]) was 100. The “Sunflower plant response rating” value [5, 8] was 0, the “Sunflower plant response rating” value [5, 9] was 45 and the “Plant response rating, Sunflower” value [5, 12] was 0. For the same molecule, the “Sunflower plant response rating” value [5, 13] was 50, the “Velvetleaf plant response rating” value (velvetleaf; [8]) was 80 and the “Velvetleaf plant response rating” value (velvetleaf; [9]) was 80. The “Plant response rating (0 to 100), Velvetleaf” value (velvetleaf; Postemergence, 31 g ai/ha) was 0, the “Plant response rating (0 to 100), Velvetleaf” value (velvetleaf; Postemergence, 62 g ai/ha) was 0 and the “Plant response rating, Velvetleaf” value (velvetleaf; [10]) was 0. For the same molecule, the “Plant response rating, Velvetleaf” value (velvetleaf; [11]) was 20, the “Plant response rating, Velvetleaf” value (velvetleaf; [12]) was 0 and the “Velvetleaf plant response rating” value (velvetleaf; [13]) was 100.
